# How the values were obtained:
# [1] = free fraction of drug in plasma; ref summary of product characteristics document; cited from earlier work
# ARPE-19 cells = assay: MTT cell viability assay; format: cell-based, human
# Method: Cell viability was assessed by determining the amount of LDH enzyme from culture media using a commercial kit (Promega Corporation, USA) according to the manufacturer’s protocol. This assay provides information about the integrity of the plasma membranes of the cells (high LDH levels meaning cell damage). In addition, the cell viability was examined with MTT assay, as described previously. In viable cells, the mitochondrial succinate dehydrogenase enzyme can metabolize the MTT dye into formazan that absorbs light at the 550 nm wavelength.
smiles,measurement,setting,value
CC(C)c1nc(N(C)S(C)(=O)=O)nc(-c2ccc(F)cc2)c1/C=C/[C@@H](O)C[C@@H](O)CC(=O)O [Rosuvastatin],fu,[1],0.12
same,Cellular toxicity in MTT test,"ARPE-19 cells; dissolved in DMSO, 24 h or 48 h, with or without LPS",well tolerated
same,Cell viability in MTT assay,ARPE-19 cells; dissolved in water,did not compromise cell viability

# Source: publication PMC7806714, “Statins for the prevention of proliferative vitreoretinopathy: cellular responses in cultured cells and clinical statin concentrations in the vitreous” (Scientific Reports, 2021)
